Assays:
Assay in all cases: Paper disk method, enhancing action for activities of azole antifungal agents
Type in all cases: cell-based
[1] = tested on: Candida albicans ATCC 64548; details: 24 hours; for Inhibition activity (inhibition ring mm) C. albicans ATCC 64548 GYF / Transparency of the inhibition ring C. albicans ATCC 64548 GYF: fluconazole 0.5 μg/ml; for Inhibition activity (inhibition ring mm) C. albicans ATCC 64548 GYM / Transparency of the inhibition ring C. albicans ATCC 64548 GYM: miconazole 0.03 μg/ml
In short: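 GY agar (pH 6.0) seeded with C. albicans ATCC 64548 precultured in Waksman broth at 27° C for 40 hours, supplemented with sub-growth-inhibitory miconazole 0.03 μg/ml or fluconazole 0.5 μg/ml. Paper disk method; inhibition-zone diameter (mm) read after 24 hours, transparency graded A–E.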

[2] = tested on: fluconazole resistant Candida albicans ATCC 64550; details: 24 hours; for Inhibition activity (inhibition ring mm) C. albicans ATCC 64550 GYF / Transparency of the inhibition ring C. albicans ATCC 64550 GYF: fluconazole 30 μg/ml; for Inhibition activity (inhibition ring mm) C. albicans ATCC 64550 GYM / Transparency of the inhibition ring C. albicans ATCC 64550 GYM: miconazole 0.15 μg/ml
In short: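 Paper disk assay on GY agar (pH 6.0) seeded with Waksman-broth-grown C. albicans ATCC 64550 (0.1% inoculum). Medium was supplemented with sub-growth-inhibitory miconazole 0.15 μg/ml or fluconazole 30 μg/ml. After 24 h, inhibition-zone diameter was measured in mm and transparency graded A–E (A most transparent, E opaque).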

[3] = tested on: Aspergillus niger ATCC 6275; details: 48 hours; for Inhibition activity (inhibition ring mm) A. niger ATCC 6275 GY / Transparency of the inhibition ring A. niger ATCC 6275 GY: GY medium (control, no azole); for Inhibition activity (inhibition ring mm) A. niger ATCC 6275 GYF / Transparency of the inhibition ring A. niger ATCC 6275 GYF: fluconazole 10 μg/ml; for Inhibition activity (inhibition ring mm) A. niger ATCC 6275 GYM / Transparency of the inhibition ring A. niger ATCC 6275 GYM: miconazole 0.1 μg/ml
In short: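 Paper-disk assay on A. niger ATCC 6275 spores (0.2%) seeded on GY agar pH 6.0. After 48 h, inhibition-zone diameter recorded in mm and transparency graded A (transparent) to E (opaque).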

## CCCCCC(=O)OC1C(C)OC(OC2C(C)C(=O)OC(C(C)(O)C(CC)OC(=O)CCCCC)C(C)C3=C(C)CC(C)(O3)C(OC3OC(C)CC(N(C)CC)C3O)C2C)CC1(C)OC (stereo not shown) [Compound 853, 4″,13-Di-O-hexanoyl-de(3′-N-methyl)-N-ethyl-8,9-Anhydro-pseudoerythromycin A 6,9-hemiketal]
[1]; 10 μg/8 mm disk
  Inhibition activity (inhibition ring mm) C. albicans ATCC 64548 GYF: 9 mm
  Transparency of the inhibition ring C. albicans ATCC 64548 GYF: E (Growth of test organism was inhibited 35% or less.)
  Inhibition activity (inhibition ring mm) C. albicans ATCC 64548 GYM: 10 mm
  Transparency of the inhibition ring C. albicans ATCC 64548 GYM: B (Growth of test organism was inhibited 75% of more and 95% or less.)
[1]; 50 μg/8 mm disk
  Inhibition activity (inhibition ring mm) C. albicans ATCC 64548 GYF: 14 mm
  Transparency of the inhibition ring C. albicans ATCC 64548 GYF: B (Growth of test organism was inhibited 75% of more and 95% or less.)
  Inhibition activity (inhibition ring mm) C. albicans ATCC 64548 GYM: 14 mm
  Transparency of the inhibition ring C. albicans ATCC 64548 GYM: A (Growth of test organism was inhibited 95% or more.)
[1]; 100 μg/8 mm disk
  Inhibition activity (inhibition ring mm) C. albicans ATCC 64548 GYF: 16 mm
  Transparency of the inhibition ring C. albicans ATCC 64548 GYF: B (Growth of test organism was inhibited 75% of more and 95% or less.)
  Inhibition activity (inhibition ring mm) C. albicans ATCC 64548 GYM: 15 mm
  Transparency of the inhibition ring C. albicans ATCC 64548 GYM: A (Growth of test organism was inhibited 95% or more.)
[2]; 10 μg/8 mm disk
  Inhibition activity (inhibition ring mm) C. albicans ATCC 64550 GYF: 11 mm
  Transparency of the inhibition ring C. albicans ATCC 64550 GYF: D (Growth of test organism was inhibited 35% or more and 55% or less.)
[2]; 50 μg/8 mm disk
  Inhibition activity (inhibition ring mm) C. albicans ATCC 64550 GYF: 14 mm
  Transparency of the inhibition ring C. albicans ATCC 64550 GYF: A (Growth of test organism was inhibited 95% or more.)
  Inhibition activity (inhibition ring mm) C. albicans ATCC 64550 GYM: 15 mm
  Transparency of the inhibition ring C. albicans ATCC 64550 GYM: A (Growth of test organism was inhibited 95% or more.)
[2]; 100 μg/8 mm disk
  Inhibition activity (inhibition ring mm) C. albicans ATCC 64550 GYF: 15 mm
  Transparency of the inhibition ring C. albicans ATCC 64550 GYF: A (Growth of test organism was inhibited 95% or more.)
  Inhibition activity (inhibition ring mm) C. albicans ATCC 64550 GYM: 16 mm
  Transparency of the inhibition ring C. albicans ATCC 64550 GYM: A (Growth of test organism was inhibited 95% or more.)
[3]; 10 μg/8 mm disk
  Inhibition activity (inhibition ring mm) A. niger ATCC 6275 GY: 10 mm
  Transparency of the inhibition ring A. niger ATCC 6275 GY: E (Growth of test organism was inhibited 35% or less.)
  Inhibition activity (inhibition ring mm) A. niger ATCC 6275 GYF: 9 mm
  Transparency of the inhibition ring A. niger ATCC 6275 GYF: E (Growth of test organism was inhibited 35% or less.)
  Inhibition activity (inhibition ring mm) A. niger ATCC 6275 GYM: 10 mm
  Transparency of the inhibition ring A. niger ATCC 6275 GYM: E (Growth of test organism was inhibited 35% or less.)
[3]; 50 μg/8 mm disk
  Inhibition activity (inhibition ring mm) A. niger ATCC 6275 GY: 12 mm
  Transparency of the inhibition ring A. niger ATCC 6275 GY: D (Growth of test organism was inhibited 35% or more and 55% or less.)
  Inhibition activity (inhibition ring mm) A. niger ATCC 6275 GYF: 13 mm
  Transparency of the inhibition ring A. niger ATCC 6275 GYF: B (Growth of test organism was inhibited 75% of more and 95% or less.)
  Inhibition activity (inhibition ring mm) A. niger ATCC 6275 GYM: 15 mm
  Transparency of the inhibition ring A. niger ATCC 6275 GYM: B (Growth of test organism was inhibited 75% of more and 95% or less.)
[3]; 100 μg/8 mm disk
  Inhibition activity (inhibition ring mm) A. niger ATCC 6275 GY: 13 mm
  Transparency of the inhibition ring A. niger ATCC 6275 GY: D (Growth of test organism was inhibited 35% or more and 55% or less.)
  Inhibition activity (inhibition ring mm) A. niger ATCC 6275 GYF: 14 mm
  Transparency of the inhibition ring A. niger ATCC 6275 GYF: B (Growth of test organism was inhibited 75% of more and 95% or less.)
  Inhibition activity (inhibition ring mm) A. niger ATCC 6275 GYM: 16 mm
  Transparency of the inhibition ring A. niger ATCC 6275 GYM: B (Growth of test organism was inhibited 75% of more and 95% or less.)

Reference: US20050176655A1, “Novel macrolide derivatives havaing effect of potentiating antifungal activity” (priority 2002, published 2005)
